Laboratory results reported in patent publication US9687529B2, “Method of controlling coagulation” (Duke University, priority 2011, dated 2017).

Experiments:
[1] = tested on: clot formation in whole blood; test: TEG of whole blood, coagulation triggered by kaolin (Example I); format: cell-based; details: for α: buffer 44.9 degrees; for MA: buffer 63.1 mm; for R: buffer 6.8 minutes
Experimental: (§1) TEG is a waveform generated from serial measurements of the torque transmitted from a small oscillating cup to the tip of a metal pin inserted into the cup by a 360 microliter sample of blood or plasma added to the cup.
(§2) A 360 microliter blood sample has been added to the cup. For 180 minutes after the sample is added, the cup oscillates alternatively clockwise and counterclockwise through an arc of 4° 45′ at a frequency of one oscillation cycle—i. e., one clockwise rotation and one counterclockwise rotation—every 10 seconds. The lower end of the pin is immersed by the sample; the upper end is suspended from a torsion wire. The TEG analyzer records a single measurement of rotation-induced torque after each clockwise rotation and after each counterclockwise rotation of the cup. “The torque of the rotating cup is transmitted to the immersed pin only after fibrin-platelet bonding has linked the cup and [the] pin together. The strength of these fibrin-platelet bonds affects the magnitude of the pin motion, such that strong clots move the pin directly in phase with the cup motion. Thus, the magnitude of the output is directly related to the strength of the formed clot . . . . [If] the clot retracts or lyses, these bonds are broken and the transfer of cup motion is diminished. The rotation movement of the pin is converted by a mechanical-electrical transducer to an electrical signal which can be monitored by a computer” (TEG 5000 User Manual, pp 3-4, 1999-2007)). The computer converts the series of electrical signals into the TEG tracing.
In the absence of an anticoagulant (A), R was 6.8 minutes, α was 44.9 degrees, and MA was 63.1 mm. […] Thus, each aptamer, to varying degrees, prolonged the time to clot formation, reduced the rate of clot strengthening, and reduced the ultimate strength of the clot. However, as was true in the previous experiment, no aptamer acting alone at the concentrations tested prevented clot formation.

human prothrombin = human prothrombin (Homo sapiens, UniProt P00734); details: read-out: apparent Kd; cited from earlier work
[2] = tested on: clot formation in normal human platelet poor plasma; test: Activated partial thromboplastin time (aPTT) plasma clotting assay; format: biochemical; details: for increase of aPTT clotting time: 4 μM aptamer
Experimental: (§3) The activated partial thromboplastin time (aPTT) and prothrombin time (PT) assays were performed on a model ST4 mechanical coagulometer (Diagnostica Stago, Parsippany, N.J.) as previously described (Bompiani et al, J Thromb Haemost 10:870-80 (2012)). For the aPTT, 50 μL of normal human platelet poor plasma (PPP) was incubated with 50 μL TriniClot aPTT S (Trinity BioTech, Bray, Co Wicklow, Ireland) at 37° C. for 5 min. Aptamer(s) (5 μL) was added, and the mixture was incubated at 37° C. for another 5 min, and CaCl2 (50 μL) was added to initiate the assay. For the PT, 50 μL of normal human PPP was incubated with 5 μL of aptamer(s) at 37° C. for 5 min. TriniClot PT Excel reagent (Trinity BioTech, Bray, Co Wicklow, Ireland) (100 μL) was added to initiate the reaction. Assays with a combination of two aptamers contain an equimolar concentration of each individual aptamer, and the data shown are the total RNA concentration.
(§4) To compare the anticoagulant effect of these four aptamers, dose-response titrations were performed in several clinical plasma-based clotting assays. The activated partial thromboplastin time (aPTT) and prothrombin time (PT) are plasma clotting assays that are clinically used to probe for abnormalities in the intrinsic and extrinsic coagulation pathways, respectively (Van Cott et al, editors. Jacobs & DeMott laboratory test handbook. 5th ed. Hudson Ohio: Lexi-Comp. p. 327-58 (2001)). These relatively simple assays measure the time until clot formation in platelet poor plasma (PPP) in response to either robust tissue factor (TF), or contact stimulation via negatively charged surfaces (i.e., silica, kaolin, celite). […] At high concentrations, the prothrombin aptamer (R9D-14T) was the most robust anticoagulant and inhibited greater than 96% of prothrombin activity in the aPTT and PT. At 4 μM, R9D-14T increased the aPTT clotting time approximately 18-fold and the PT clotting time greater than 80-fold (exceeded the assay limit of 999 sec). […] At the same dose, the FIXa aptamer (9.3T) inhibited greater than 99% of FIX activity and increased the aPTT clotting time approximately 5.5-fold, while the FVIIa aptamer (7S-1) increased the PT clotting time 3-fold and inhibited greater than 99% of FVII activity (FIGS. 20A and 20B).

[3] = tested on: clot formation in normal human platelet poor plasma; test: Prothrombin time (PT) plasma clotting assay; format: biochemical; details: for increase of PT clotting time: 4 μM aptamer
Experimental: as §3, §4

[4] = tested on: clot formation in whole blood; test: TEG of whole blood, coagulation triggered by tissue factor (Example I); format: cell-based; details: TF; for clot formation (in words): FVIIa aptamer 0.5, FIXa aptamer 1.0, FXa aptamer 1.0 micromolar
Experimental: as §1, §2

whole blood = test: Isolated 25-mL oxygenator circuit (Example II); details: 2 micromolar
Experimental: FIG. 18 is a photograph of the isolated 25-mL oxygenator circuit, the principal components of which are a 5-mL venous reservoir, a custom-designed polypropylene membrane oxygenator, segments of 1.6 mm internal diameter silicone tubing that connect the oxygenator with the reservoir, and a small roller pump. The oxygenator is constructed of two 10 cm×10 cm rectangular Plexiglas® shells that surround and hold a 9.5 cm×9.5 cm×1 mm polypropylene membrane. Its priming volume is 4 mL. The pump circulates the blood continuously from the reservoir through the oxygenator and back to the reservoir.
Unpublished experiments have shown that the thrombogenicity of the isolated 25-mL oxygenator circuit resembles the thrombogenicity of a CPB circuit. […] Clot formation occurred approximately 30 minutes after circulation was started. […] In contrast, UFH 5, U/mL, as well as the combination of RNA9.3t, RNA11F7t, and thrombin aptamer both prevented clot formation in blood circulated for 2 hours in the isolated circuit.

[5] = Cardiopulmonary bypass on a juvenile pig; format: in vivo; details: 3-hr period of CPB
[6] = aptamer/antidote pair; neonatal porcine cardiopulmonary bypass; cited from earlier work
FIXa = target: T1, FIXa (Homo sapiens, UniProt P00740); details: clinical studies; cited from earlier work
T1 construct: host or cells: circulating blood of trial subjects (endogenous protein)
T1 sequence (P00740 227-461 limits assumed): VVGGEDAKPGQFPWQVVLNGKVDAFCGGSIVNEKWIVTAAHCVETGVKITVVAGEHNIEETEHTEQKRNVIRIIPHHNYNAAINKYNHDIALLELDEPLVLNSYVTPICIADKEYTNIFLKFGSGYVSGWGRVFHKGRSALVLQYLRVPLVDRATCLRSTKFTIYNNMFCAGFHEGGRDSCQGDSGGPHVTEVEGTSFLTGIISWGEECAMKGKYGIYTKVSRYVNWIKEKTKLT
T1 sequence (P00740 47-191 partner limits assumed): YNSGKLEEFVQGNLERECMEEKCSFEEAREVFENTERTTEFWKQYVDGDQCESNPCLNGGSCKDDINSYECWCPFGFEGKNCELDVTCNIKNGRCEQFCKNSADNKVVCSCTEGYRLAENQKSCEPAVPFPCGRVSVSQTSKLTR

Substance “R9D-14T: prothrombin/thrombin aptamer, 58-base truncation of RNA9D-14, SEQ ID NO: 3 (GGCGGTCGATCACACAGTTCAAACGTAATAAGCCAATGTACGAGGCAGACGACTCGCC; 2'-fluoro at CT, RNA at AG, backbone and T or U not given here) [Aptamer R9D-14T]” has a α ([1]; 5.0 micromolar, kaolin) of 18.6 degrees, an MA ([1]; 5.0 micromolar, kaolin) of 42.5 mm and an R ([1]; 5.0 micromolar, kaolin) of 31.3 min. The Kd (human prothrombin) was 10 nM, the “increase of aPTT clotting time” value [2] was “approximately 18 fold” and the prothrombin activity inhibited ([2]; aPTT, high concentrations) was “greater than 96%”. For the same substance, the “increase of PT clotting time” value [3] was “greater than 80 fold”, the PT clotting time ([3]; 4 μM, assay limit 999 sec) was > 999 s and the prothrombin activity inhibited ([3]; PT, high concentrations) was “greater than 96%”.
For “9.3T: FIXa aptamer, 2'-fluoropyrimidine modified RNA, SEQ ID NO: 1 (AUGGGGACUAUACCGCGUAAUGCUGCCUCCCCAU; 2'-fluoro at CU, RNA at AG, backbone not given here) [Aptamer 9.3T]”, the “clot formation (in words)” value [4] was “none of those aptamers prevented clot formation”, the “clot formation in isolated oxygenator circuit (in words)” value (whole blood) was “failed to prevent clot formation” and the “time of clot formation after circulation was started” value (whole blood) was “approximately 30 minutes”. For the same substance, the α ([1]; 2.0 micromolar, kaolin) was 36.6 degrees, the MA ([1]; 2.0 micromolar, kaolin) was 58.6 mm and the R ([1]; 2.0 micromolar, kaolin) was 29.2 min. The “time of clot formation (bifurcation)” value ([1]; FIXa aptamer 0.5 micromolar, kaolin) was 22.1 min, the “anticoagulation during CPB (in words)” value [5] was “failed to effect satisfactory anticoagulation” and the “anticoagulation in CPB model (in words)” value [6] was “sufficiently anticoagulated blood”. The “increase of aPTT clotting time” value [2] was “approximately 5.5 fold” and the “FIXa activity inhibited in vivo” value (FIXa) was “greater than 99%”.
With “11F7T: FXa aptamer, 2'-fluoropyrimidine modified RNA, SEQ ID NO: 2 (GAGAGCCCCAGCGAGAUAAUACUUGGCCCCGCUCUU; 2'-fluoro at CU, RNA at AG, backbone not given here) [Aptamer 11F7T]” the MA ([4]; 1.0 micromolar, buffer 69.7 mm) was 59.5 mm, the “R, lag time” value ([4]; 1.0 micromolar, buffer 4.4 minutes) was 17.8 min and the α ([4]; 1.0 micromolar, buffer about 55 degrees) was 24 degrees. The “clot formation (in words)” value [4] was “did not prevent the ultimate development of clot”, the α ([1]; 2.0 micromolar, kaolin) was 29.8 degrees and the MA ([1]; 2.0 micromolar, kaolin) was 48.4 mm. The R ([1]; 2.0 micromolar, kaolin) was 22.5 min, the “clot formation in TEG assays, single agents (in words)” value ([1]; data not shown) was “delay, but do not prevent clot formation” and the “increase of aPTT clotting time” value [2] was “approximately 11 fold”. For the same substance, the “increase of PT clotting time” value [3] was “approximately 8 fold”.
